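Following 48 hours of exposure in 96-well plates, responses at five concentrations were used to interpolate endpoints linearly. At the GI50, growth is halved. Definition used: TGI = concentration required for complete inhibition of growth.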
How the values were obtained:
Experiment in all cases: DTP human tumour cell line panel, 48 h
SW-620 colon = test system: SW-620 colon
NCI-H460 lung = test system: NCI-H460 lung
CCRF-CEM leukemia = test system: CCRF-CEM leukemia
HCT-15 colon = test system: HCT-15 colon
HCC-2998 colon = test system: HCC-2998 colon
SK-OV-3 ovarian = test system: SK-OV-3 ovarian
LOX IMVI melanoma = test system: LOX IMVI melanoma
OVCAR-4 ovarian = test system: OVCAR-4 ovarian
RPMI-8226 leukemia = test system: RPMI-8226 leukemia

Structure (SMILES)	TGI (SW-620 colon)	TGI (NCI-H460 lung)	TGI (CCRF-CEM leukemia)	TGI (HCT-15 colon)	TGI (HCC-2998 colon)	TGI (SK-OV-3 ovarian)	TGI (LOX IMVI melanoma)	TGI (OVCAR-4 ovarian)	GI50 (SW-620 colon)	GI50 (NCI-H460 lung)	GI50 (HCT-15 colon)	GI50 (SK-OV-3 ovarian)	GI50 (LOX IMVI melanoma)	GI50 (OVCAR-4 ovarian)	TGI (RPMI-8226 leukemia)	GI50 (CCRF-CEM leukemia)	GI50 (HCC-2998 colon)	GI50 (RPMI-8226 leukemia)
O=C(/C=C/c1ccccc1)c1ccc(NCc2nc3ccccc3[nH]2)cc1	8.43 µM	12 µM	8.38 µM	15.9 µM	4.2 µM	18.1 µM	3.76 µM	22.8 µM										
O=[N+]([O-])c1ccc(Sc2c3ccccc3nc3cc(Cl)ccc23)cc1	> 100 µM	> 100 µM	> 100 µM	> 100 µM		> 100 µM	> 100 µM	> 100 µM	> 100 µM	> 100 µM	> 100 µM	> 100 µM	> 100 µM	> 100 µM	> 100 µM			
CCNC(=O)COc1ccc(Cl)cc1Cl	> 100 µM	> 100 µM		> 100 µM		> 100 µM									> 100 µM			
CSC1=Nc2ccccc2N=C(c2ccc(Cl)cc2)C1	> 100 µM	> 100 µM	> 100 µM	> 100 µM		> 100 µM	72.1 µM	> 100 µM							> 100 µM			
Cc1c2ccccc2cc2ccc3oc([N+](=O)[O-])cc3c12	> 100 µM	> 100 µM	> 100 µM	> 100 µM	> 100 µM	> 100 µM	> 100 µM	> 100 µM							> 100 µM			
CN(C)C(=S)/N=c1\ssc(=S)n1Cc1ccncc1	48.8 µM	31.5 µM	57 µM	55.1 µM	57.3 µM	72.2 µM	39.9 µM	95.2 µM										
COC(=O)C1(C(=O)OC)CC(=O)c2cc3c(cc2-c2c(cc(OC)c(OC)c2OC)C1)OCO3	> 211 µM	> 211 µM	> 211 µM	> 211 µM	> 211 µM	> 211 µM	> 211 µM											
CC(=O)N1CCC2(c3ccccc3N(C(C)=O)C2c2ccc(O)cc2)C1C(=O)O (stereo not drawn)	> 100 µM		> 100 µM		> 100 µM	> 100 µM	> 100 µM								> 100 µM			
CCOC(=O)C1SC(=Nc2ccc(Cl)cc2)N=C1C (stereo not drawn)	35.2 µM	45.1 µM		30 µM	31.5 µM		32.5 µM	56.1 µM							82.3 µM			
CCOC(=O)NC(=O)c1cn(CCN2CCN(C(=O)CCCCCCCCCCC(=O)N3CCN(CCn4cc(C(=O)NC(=O)OCC)c(=O)[nH]c4=O)CC3)CC2)c(=O)[nH]c1=O	> 100 µM		> 100 µM		> 100 µM	> 100 µM	> 100 µM	> 100 µM							> 100 µM			
O=c1c2cc(Br)ccc2nc(CCl)n1-c1ccc(O)c([N+](=O)[O-])c1	35.2 µM	> 100 µM	52.9 µM	41.2 µM	34.1 µM	93.5 µM	36.2 µM	33.4 µM							47.8 µM			
Cc1ccccc1C(=O)N1CCN(C(=O)c2ccccc2C)CC1	> 100 µM	> 100 µM	> 100 µM	> 100 µM	> 100 µM	> 100 µM	> 100 µM	> 100 µM							> 100 µM			
C=C1C[C@@H]2CC[C@@]34C[C@H]5O[C@H]6[C@@H](O3)[C@H]3O[C@H](CC[C@@H]3O[C@H]6[C@@H]5O4)CC(=O)C[C@@H]3[C@@H](OC)[C@@H](C[C@H](O)CN)O[C@H]3C[C@H]3O[C@@H](CC[C@@H]1O2)C[C@@H](C)C3=C	> 100 µM	> 100 µM	> 100 µM	> 100 µM	> 100 µM	> 100 µM	0.99 µM	> 100 µM	< 0.01 µM	< 0.01 µM	0.326 µM		< 0.01 µM	1.03 µM		< 0.01 µM	< 0.01 µM	< 0.01 µM
CCCCN(CC)CC(C(C)=O)c1c(O)c2ccccc2oc1=O (stereo not drawn)	> 100 µM	> 100 µM	> 100 µM	> 100 µM	> 100 µM	> 100 µM	> 100 µM	> 100 µM							> 100 µM			
CCCCN(CCCC)C(=O)/C(CC(=O)c1cccc2ccccc12)=N\NC(=O)c1cc2ccccc2cc1O	> 100 µM	44.2 µM	25.3 µM		43.8 µM		35.9 µM	70.5 µM							21.5 µM			
COC(=O)C1(O)CC(=O)CCC1c1ccc(OC)cc1 (stereo not drawn)	> 100 µM	> 100 µM	> 100 µM	> 100 µM	> 100 µM	> 100 µM	> 100 µM	> 100 µM							> 100 µM			
C[N+](C)(C)CC1CCCCC1O (stereo not drawn)	> 100 µM	> 100 µM	> 100 µM	> 100 µM	> 100 µM	> 100 µM	> 100 µM	> 100 µM							> 100 µM			
c1ccc(N2N=C(c3ccco3)CC2c2ccco2)cc1 (stereo not drawn)	> 100 µM	> 100 µM	> 100 µM	> 100 µM			> 100 µM	> 100 µM							> 100 µM			

Structure (SMILES)	TGI (SW-620 colon)	TGI (NCI-H460 lung)	TGI (CCRF-CEM leukemia)	TGI (HCT-15 colon)	TGI (HCC-2998 colon)	TGI (SK-OV-3 ovarian)	TGI (LOX IMVI melanoma)	TGI (OVCAR-4 ovarian)	GI50 (SW-620 colon)	GI50 (NCI-H460 lung)	GI50 (HCT-15 colon)	GI50 (SK-OV-3 ovarian)	GI50 (LOX IMVI melanoma)	GI50 (OVCAR-4 ovarian)	TGI (RPMI-8226 leukemia)	GI50 (CCRF-CEM leukemia)	GI50 (HCC-2998 colon)	GI50 (RPMI-8226 leukemia)
O=C(/C=C/c1ccccc1)CC(=O)CCC(=O)Nc1ccc(Cl)cc1	> 100 µM	> 100 µM	> 100 µM	> 100 µM	> 100 µM	> 100 µM	> 100 µM	> 100 µM							> 100 µM			
CSc1nnc(COc2ccc(Cl)cc2)o1	> 100 µM	> 100 µM		> 100 µM		> 100 µM	> 100 µM	> 100 µM										
CC(=O)OCC1OC(N2C(=O)C(=O)c3ccccc32)C(OC(C)=O)C(OC(C)=O)C1OC(C)=O (stereo not drawn)	> 100 µM	> 100 µM	> 100 µM	> 100 µM	> 100 µM	> 100 µM	> 100 µM	> 100 µM							> 100 µM			
Cc1c(C(=O)O)oc2ccc([N+](=O)[O-])cc12	> 100 µM	> 100 µM	> 100 µM	> 100 µM	> 100 µM	> 100 µM	> 100 µM	> 100 µM										
COc1ccc(CN2CCC/C=C/CC(Cl)(Cl)C2=O)cc1	> 100 µM	> 100 µM	> 100 µM	> 100 µM	> 100 µM	> 100 µM	> 100 µM	98.8 µM							69.4 µM			
Cn1c2c(c3ccccc31)CCN(CCN1CCN(c3cccc(Cl)c3)CC1)C2=O	> 100 µM		> 100 µM	> 100 µM		> 100 µM	> 100 µM								> 100 µM			
COc1ccc(C(=O)NCCN(C)C)c2nc3ccccc3nc12	> 30.5 µM			24.4 µM	26.3 µM	> 63.2 µM	6.48 µM	16.8 µM							> 100 µM			
Cc1nc(C(N)=S)sc1C(=O)/C=C/c1c(O)ccc2ccccc12	> 100 µM	> 100 µM	54.5 µM	> 100 µM	> 100 µM	> 100 µM	73.6 µM	> 100 µM							> 93.5 µM			
CCC(=O)Nc1nc2c(ncn2C2OC(COC(=O)CC)C(OC(=O)CC)C2OC(=O)CC)c(=O)[nH]1 (stereo not drawn)	> 100 µM	> 100 µM		> 100 µM	> 100 µM	> 100 µM	> 100 µM	> 100 µM							> 100 µM			
C=C(C)C1C/C=C(/C)CCCC2(CCC3=C(CC(C(=C)C)C/C=C(/C)CCC3)O2)C(=O)C1 (stereo not drawn)	> 100 µM	> 100 µM	> 100 µM	> 100 µM	> 100 µM	> 100 µM	> 100 µM	> 100 µM							> 100 µM			
C/C(=N/NC(=O)C[N+](C)(C)C)C(CN(C)C)C(=O)Nc1ccccc1 (stereo not drawn)	> 100 µM	> 100 µM	> 100 µM	> 100 µM	> 100 µM	> 100 µM	> 100 µM	> 100 µM										
CSC(=S)N/N=C/c1nccc2ccccc12	18.8 µM	6.12 µM	8.8 µM	40 µM	11.3 µM	29.8 µM	13.1 µM	> 100 µM							11.6 µM			
Cc1ccc(-c2nc3nc(-c4ccc(F)cc4)nc(N4CCCNCC4)c3o2)cc1	2.17 µM	3.53 µM	1.04 µM	2.42 µM	3.37 µM	3.37 µM	2.55 µM	3.25 µM	0.742 µM	1.79 µM	1.06 µM	1.87 µM	1.18 µM	1.83 µM	4.66 µM	0.293 µM	1.68 µM	1.85 µM
Cc1ccccc1NC(=O)C1C(=O)N(c2ccccc2C)C(=O)/C1=N\NC(N)=S (stereo not drawn)	> 100 µM		> 100 µM			> 100 µM	> 100 µM								> 100 µM			
COc1ccc2[nH]c3c(c2c1)[C@H](C)C[C@@H]1C(=O)N(c2ccccc2)C(=O)[C@H]31	> 100 µM	> 100 µM	> 100 µM	> 100 µM	> 100 µM	46 µM	> 100 µM	45.2 µM										
CC(C)(Oc1ccc(/C=C/C(=O)c2ccc(Cl)cc2)cc1)C(=O)Nc1c(Cl)cccc1Cl	27.8 µM	98.3 µM		29.3 µM	51.5 µM	> 100 µM	31 µM	> 100 µM										
Nc1ncnc2c1ncn2CC(O)CO (stereo not drawn)	> 100 µM	> 100 µM	> 100 µM	> 100 µM	> 100 µM	> 100 µM	> 100 µM	> 100 µM							> 100 µM			
